IC50 data for 25 molecules are collected here from patent publication US9796668B2, “Natural product analogs including an anti-inflammatory cyanoenone pharmacore and methods of use” (REATA PHARMACEUTICALS, INC., priority 2008, dated 2017).

The structures appear in SMILES notation. Like-named read-outs stand apart in the source and are kept apart here. A value given as a limit tells only on which side of the number the result lay.

The subject of one assay is RAW264.7 macrophages. In words: Cell viability (WST-1 reagent). The conditions noted are these: RAW264.7, 20 ng/ml IFNγ. The class given is cell-based, mouse. The method, then:
(§1) FIGS. 1-16 and 20-24. Inhibition of NO Production. RAW264.7 macrophages were pre-treated with DMSO or drugs at various concentrations (μM) for 2 hours, then treated with IFNγ for 24 hours. NO concentration in media was determined using a Griess reagent system; cell viability was determined using the WST-1 reagent.
(§2) RAW264.7 macrophages were pre-treated with DMSO or drugs for 2 hours, then treated with recombinant mouse IFNγ (Sigma) for 24 hours. NO concentration in media was determined using the Griess reagent system (Promega). Cell viability was determined using WST-1 reagent (Roche).

In assay [1] the test system is IFNγ-induced NO production in RAW264.7 macrophages. In words: Suppression of IFNγ-induced NO production (Griess reagent). Format: cell-based, mouse. How it is done: as §1
Compounds of the present disclosure have been tested for inhibition of NO production. Experimental details are provided in Example 1.
as §2

Where [2] appears, read: Mus musculus, RAW264.7, read-out: NO IC50.
Setting [3] is: Mus musculus, RAW264.7, read-out: IC50 in the NO assay.
Setting [4] is: Mus musculus, RAW264.7, 20 ng/ml IFNγ, read-out: NO IC50.
Setting [5] is: Mus musculus, RAW264.7, parent compounds, read-out: IC50 in the NO assay.

Take `C=CCC1(CC=C)C(=O)C(C#N)(C#N)C[C@@]2(C)C1=CC[C@@H]1[C@@H]2CC[C@]2(C)C(=O)CC[C@@H]12` [Compound 63290]: the IC50 was roughly 10000 nM in the assay with RAW264.7 macrophages (Mus musculus) and roughly 3000 nM in assay [1] (setting [2]).

As for `C=CCC1(CC=C)C(=O)C(C#N)(C#N)C[C@@]2(C)C1=CC[C@@H]1[C@@H]2CC[C@@]2(C)[C@H]1CCC21OCCO1` [Compound 63291], the IC50 in the assay with RAW264.7 macrophages (Mus musculus) was greater than 10000 nM; in assay [1] (setting [2]) it was roughly 1500 nM.

Consider `C[C@]12C=C(C#N)C(=O)C3(CC=CC3)C1=CC[C@@H]1[C@@H]2CC[C@@]2(C)[C@H]1CCC21OCCO1` [Compound 63304], for which the IC50 with RAW264.7 macrophages (Mus musculus) was roughly 400 nM; in assay [1] (setting [2]), roughly 30 nM.

Regarding `C[C@]12C=C(C#N)C(=O)C3(CC=CC3)C1=CC[C@@H]1[C@@H]2CC[C@]2(C)C(=O)CC[C@@H]12` [Compound 63311], the IC50 in the assay on RAW264.7 macrophages (Mus musculus) is roughly 750 nM; in assay [1] (setting [2]), roughly 20 nM.

As for `COCO[C@H]1C[C@H]2[C@@H]([C@H](OCOC)C[C@@H]3CC(=O)C(C#N)=C[C@@]32C)[C@@H]2CC[C@H]([C@H](C)CCC(=O)OC)[C@@]12C` [Compound 63312], the IC50 with RAW264.7 macrophages (Mus musculus) is greater than 200 nM; in assay [1] (setting [2]), roughly 3500 nM.

Turning to `CCCC1(CCC)C(=O)C(C#N)=C[C@@]2(C)C1=CC[C@@H]1[C@@H]2CC[C@]2(C)C(=O)CC[C@@H]12` [Compound 63313], the figures for the IC50 (in the assay with RAW264.7 macrophages (Mus musculus); in assay [1] (setting [2])) were roughly 2500 nM and roughly 450 nM, respectively.

For the molecule `COC(=O)CC[C@@H](C)[C@H]1CC[C@H]2[C@@H]3[C@H](O)C[C@@H]4CC(=O)C(C#N)=C[C@]4(C)[C@H]3C[C@H](O)[C@]12C` [Compound 63314], the concentration for half-maximal inhibition (IC50) was greater than 200 nM in the assay on RAW264.7 macrophages (Mus musculus) and roughly 8000 nM in assay [1] (setting [2]).

In the case of `C[C@]12C=C(C#N)C(=O)C3(CCCC3)C1=CC[C@@H]1[C@@H]2CC[C@@]2(C)[C@H]1CCC21OCCO1` [Compound 63317], the IC50 in assay [1] (setting [2]) was roughly 70 nM.

For the molecule `C[C@]12C=C(C#N)C(=O)C3(CCCC3)C1=CC[C@@H]1[C@@H]2CC[C@]2(C)C(=O)CC[C@@H]12` [Compound 63318], the IC50 in assay [1] (setting [2]) is roughly 50 nM.

Turning to `C[C@]12CC[C@H]3[C@@H](CC=C4C5(CCCC5)C(=O)C(C#N)=C[C@@]43C)[C@@H]1CC[C@@H]2O` [Compound 63329], the IC50 in assay [1] (setting [2]) is roughly 60 nM.

`COc1cc(C=CC2(C(C)(C)C(=O)/C=C/[C@@]3(C)C=C(C#N)C(=O)C(C)(C)C3)OCCO2)ccc1O[Si](C)(C)C(C)(C)C` [Compound C0008, (S)-3-((E)-4-(2-(4-(tert-butyldimethylsilyloxy)-3-methoxystyryl)-1,3-dioxolan-2-yl)-4-methyl-3-oxopent-1-enyl)-3,5,5-trimethyl-6-oxocyclohex-1-enecarbonitrile]: the IC50 was 5000 nM with RAW264.7 macrophages (Mus musculus) and 340 nM in assay [1] (setting [2]).

On to `COc1cc(/C=C/C(=O)C(C)(C)C(=O)/C=C/[C@@]2(C)C=C(C#N)C(=O)C(C)(C)C2)ccc1O` [Compound C0009, (S)-3-((1E,6E)-7-(4-hydroxy-3-methoxyphenyl)-4,4-dimethyl-3,5-dioxohepta-1,6-dienyl)-3,5,5-trimethyl-6-oxocyclohex-1-enecarbonitrile], for which the IC50 turned out to be 1000 nM with RAW264.7 macrophages (Mus musculus), 100 nM in assay [1] (setting [3]) and 100 nM in assay [1] (setting [4]).

Take `COc1cc(C=CC2(C(C)(C)C(=O)/C=C/[C@@]3(C)C=C(C#N)C(=O)C(C)(C)C3)OCCO2)ccc1O` [Compound C0010, (S)-3-((E)-4-(2-(4-hydroxy-3-methoxystyryl)-1,3-dioxolan-2-yl)-4-methyl-3-oxopent-1-enyl)-3,5,5-trimethyl-6-oxocyclohex-1-enecarbonitrile]: the IC50 with RAW264.7 macrophages (Mus musculus) was determined as 5000 nM; in assay [1] (setting [4]) it was 700 nM.

For `COCOC1CCC2C3CCC4=C(C#N)C(=O)CC[C@@]4(C)C3CC[C@@]12C` (stereo partly drawn) [Compound D0014, (10S,13R)-17-(methoxymethoxy)-10,13-dimethyl-3-oxo-2,3,6,7,8,9,10,11,12,13,14,15,16,17-tetradecahydro-1H-cyclopenta[a]phenanthrene-4-carbonitrile], the IC50 in the assay with RAW264.7 macrophages (Mus musculus) is greater than 10000 nM; in assay [1] (setting [2]), 2400 nM.

With `C[C@@]12CCC3C(CCC4=C(C#N)C(=O)CC[C@]43C)C1CCC2O` (stereo partly drawn) [Compound D0015, (10S,13R)-17-hydroxy-10,13-dimethyl-3-oxo-2,3,6,7,8,9,10,11,12,13,14,15,16,17-tetradecahydro-1H-cyclopenta[a]phenanthrene-4-carbonitrile], the half-maximal inhibitory concentration (IC50) is greater than 10000 nM in the assay on RAW264.7 macrophages (Mus musculus) and 2900 nM in assay [1] (setting [4]).

For `CC1(C)C(=O)C(C#N)=C[C@]2(C)C3CC[C@]4(C)C(O[Si](C)(C)C)CCC4C3CCC12` (stereo partly drawn) [Compound D0016, (10S,13S)-4,4,10,13-tetramethyl-3-oxo-17-(trimethylsilyloxy)-4,5,6,7,8,9,10,11,12,13,14,15,16,17-tetradecahydro-3H-cyclopenta[a]phenanthrene-2-carbonitrile], the results for the IC50 (in the assay on RAW264.7 macrophages (Mus musculus); in assay [1] (setting [4])) were 10000 nM and 150 nM, respectively.

As to `CC1(C)C(=O)C(C#N)=C[C@]2(C)C3CC[C@@]4(C)C(CC[C@@H]4O)C3CCC12` (stereo partly drawn) [Compound D0017, (10S,13S,17S)-17-hydroxy-4,4,10,13-tetramethyl-3-oxo-4,5,6,7,8,9,10,11,12,13,14,15,16,17-tetradecahydro-3H-cyclopenta[a]phenanthrene-2-carbonitrile], the IC50 in the assay on RAW264.7 macrophages (Mus musculus) is 10000 nM; in assay [1] (setting [4]), 140 nM.

For `CC1(C)C(=O)C(C#N)=C[C@]2(C)C3CC[C@]4(C)C(=O)CCC4C3CCC12` (stereo partly drawn) [Compound D0018, (10S,13S)-4,4,10,13-tetramethyl-3,17-dioxo-4,5,6,7,8,9,10,11,12,13,14,15,16,17-tetradecahydro-3H-cyclopenta[a]phenanthrene-2-carbonitrile], the IC50 is greater than 10000 nM in the assay with RAW264.7 macrophages (Mus musculus), 130 nM in assay [1] (setting [3]) and 130 nM in assay [1] (setting [4]).

Regarding `CC1CC[C@@]2(OC1)OC1CC3C4CCC5CC(=O)C(C#N)=C[C@]5(C)C4=CC(=O)[C@]3(C)C1[C@@H]2C` (stereo partly drawn) [Compound H0001], the figures for the IC50 (in the assay on RAW264.7 macrophages (Mus musculus); in assay [1] (setting [2])) were 2500 nM and 150 nM, respectively.

As to `C[C@]1(/C=C/c2ccc(O)cc2)C=C(C#N)C(=O)CC1` [Compound R00141, (S,E)-3-(4-hydroxystyryl)-3-methyl-6-oxocyclohex-1-enecarbonitrile], the IC50 was greater than 10000 nM in the assay on RAW264.7 macrophages (Mus musculus) and 3000 nM in assay [1] (setting [4]).

Take `CC1(C)C[C@@](C)(/C=C/c2ccc(O)cc2)C=C(C#N)C1=O` [Compound R00142, (S,E)-3-(4-hydroxystyryl)-3,5,5-trimethyl-6-oxocyclohex-1-enecarbonitrile]: the IC50 with RAW264.7 macrophages (Mus musculus) was greater than 10000 nM; in assay [1] (setting [4]), 1200 nM.

In the case of `COc1cc(/C=C/C(=O)CC(=O)/C=C/c2ccc(O)c(OC)c2)ccc1O` [Curcumin, curcumin, reference compound], the concentration for half-maximal inhibition (IC50) in the assay with RAW264.7 macrophages (Mus musculus) worked out at 4000 nM; in assay [1] (setting [5]), 1500 nM; in assay [1] (setting [4]), 1350 nM.

As to `C[C@]12CC[C@H](O)CC1=CC[C@@H]1[C@@H]2CC[C@]2(C)C(=O)CC[C@@H]12` [DHEA, dehydroandrosterone, reference compound], the IC50 (in the assay on RAW264.7 macrophages (Mus musculus); in assay [1] (setting [5]); in assay [1] (setting [4])) was greater than 10000 nM each time.

With `C[C@@H]1CC[C@@]2(OC1)O[C@H]1C[C@H]3[C@@H]4CC[C@H]5C[C@@H](O)CC[C@]5(C)[C@H]4CC(=O)[C@]3(C)[C@H]1[C@@H]2C` [Hecogenin, hecogenin, reference compound], the IC50 was greater than 10000 nM in the assay with RAW264.7 macrophages and greater than 10000 nM in assay [1] (RAW264.7, 20 ng/ml IFNγ, read-out: NO IC50).

`Oc1ccc(C=Cc2cc(O)cc(O)c2)cc1` [Resveratrol, resveratrol, reference compound]: the IC50 (in the assay with RAW264.7 macrophages (Mus musculus); in assay [1] (setting [4])) was greater than 10000 nM in each case.
